From the NIST ThermoML archive (doi:10.1016/j.fluid.2016.01.050)
± gives the expanded uncertainty stated by the source.

How the values were obtained:
[1] = refractive index (Na D-line) (dimensionless); settings: 298 K; 101.33 kPa; Liquid; Standard Abbe refractometry
[2] = 298 K; 101.33 kPa; Liquid; Vibrating tube method

| refractive index [1] | mass density [2] [kg/m3] | SMILES |
| --- | --- | --- |
| 1.52467 ± 0.00042 | 1006.48 ± 0.38 | CC(O)c1ccccc1 (stereo not drawn) [1-phenylethanol] |
| 1.40718 ± 0.00042 | 935.04 ± 0.37 | CCCCC(=O)O [pentanoic acid] |
| 1.56019 ± 0.00042 | 1039.32 ± 0.4 | c1ccc(COCc2ccccc2)cc1 [dibenzyl ether] |

| SMILES | refractive index [1] | mass density [2] [kg/m3] |
| --- | --- | --- |
| Clc1ccccc1 [chlorobenzene] | 1.52165 ± 0.00042 | 1101.08 ± 0.44 |
